Measured values published in ChEMBL document CHEMBL6153042, “Glycoconjugates of adefovir and tenofovir as asialoglycoprotein-mediated Anti-HBV prodrugs with enhanced liver targeting” (Eur J Med Chem, 2025).

How the values were obtained:
[1] = Drug metabolism in plasma of Sprague-Dawley rat assessed as hydrolyzed metabolite formation measured after 5 hrs by HPLC analysis; type: ADME, cell-free
[2] = Prodrug release in human HepG2 cells assessed as adefovir release measured over 1 hrs by HPLC analysis; type: ADME, cell-based; conditions: hepg2, 1 h
[3] = Prodrug release in human HepG2 cells assessed as tenofovir release measured over 1 hrs by HPLC analysis; type: ADME, cell-based; conditions: hepg2, 1 h
[4] = Prodrug release in human HepG2 cells assessed as adefovir release by mass spectrometric analysis; type: ADME, cell-based
[5] = Prodrug release in human HepG2 cells assessed as tenofovir release by mass spectrometric analysis; type: ADME, cell-based
[6] = Toxicity in Kunming mouse assessed as histopathological changes in liver at 200 mg/kg, iv once daily for 5 days by H and E staining based analysis; type: organism-based; conditions: in vivo, 120 h, time 5 day
[7] = Toxicity in Kunming mouse assessed as effect on body weight at 100 to 200 mg/kg, iv administered once daily for 5 days; type: organism-based; conditions: in vivo, 120 h, dose 100-200 mg/kg, time 5 day
[8] = system: LX-2; assay: Cytotoxicity against human LX2 cells at 5 uM incubated for 48 hrs by CCK8 assay; type: toxicity, cell-based; conditions: lx-2, 48 h
[9] = Toxicity in Kunming mouse assessed as maximum tolerated dose administered intravenously as once daily dose for 5 days; conditions: in vivo, route iv, time 5 day
[10] = system: LX-2; assay: Cytotoxicity against human LX2 cells assessed as cell growth inhibition at 10 uM incubated for 48 hrs by CCK8 assay relative to control; type: toxicity, cell-based; conditions: lx-2, 48 h, 10 µM
[11] = Cytotoxicity against human HepG2.2.15 cells assessed as inhibition of cell proliferation by CCK8 assay; type: toxicity, cell-based, HepG2 2.2.15
[12] = system: Hepatitis B virus; assay: Antiviral activity against Hepatitis B virus infected in human HepG2.2.15 cells assessed as inhibition of HBV DNA replication incubated for 10 day by qPCR analysis; type: functional, organism-based; conditions: HepG2.2.15, 240 h
[13] = Selectivity index, the ratio of CC50 for human HepG2.2.15 cells to EC50 for antiviral activity against HBV in human HepG2.2.15 cells assessed as inhibition of HBV DNA replication; type: toxicity, cell-based; conditions: read-out: Ratio CC50/EC50
[14] = Toxicity in Kunming mouse assessed as histopathological changes in heart at 200 mg/kg, iv once daily for 5 days by H and E staining based analysis; type: organism-based; conditions: in vivo, 120 h, time 5 day
[15] = Toxicity in Kunming mouse assessed as histopathological changes in kidney at 200 mg/kg, iv once daily for 5 days by H and E staining based analysis; type: organism-based; conditions: in vivo, 120 h, time 5 day
[16] = Metabolic stability in rat liver microsomes assessed as half-life measured upto 60 mins by LC-MS/MS analysis; type: ADME, Microsome
[17] = Metabolic stability in human liver microsomes assessed as half-life measured upto 60 mins by LC-MS/MS analysis; type: ADME, Microsome
[18] = AUC (0 to t) in Sprague-Dawley rat at 50 mg/kg, po by LC-MS analysis; type: ADME, organism-based; conditions: in vivo
[19] = AUC (0 to t) in Sprague-Dawley rat at 5 mg/kg, iv by LC-MS analysis; type: ADME, organism-based; conditions: in vivo
[20] = AUC (0 to infinity) in Sprague-Dawley rat at 5 mg/kg, iv by LC-MS analysis; type: ADME, organism-based; conditions: in vivo
[21] = AUC (0 to infinity) in Sprague-Dawley rat at 50 mg/kg, po by LC-MS analysis; type: ADME, organism-based; conditions: in vivo
[22] = Half-life in Sprague-Dawley rat at 50 mg/kg, po by LC-MS analysis; type: ADME, organism-based; conditions: in vivo
[23] = Half-life in Sprague-Dawley rat at 5 mg/kg, iv by LC-MS analysis; type: ADME, organism-based; conditions: in vivo
[24] = Tmax in Sprague-Dawley rat at 5 mg/kg, iv by LC-MS analysis; type: ADME, organism-based; conditions: in vivo
[25] = Tmax in Sprague-Dawley rat at 50 mg/kg, po by LC-MS analysis; type: ADME, organism-based; conditions: in vivo
[26] = Cmax in Sprague-Dawley rat at 50 mg/kg, po by LC-MS analysis; type: ADME, organism-based; conditions: in vivo
[27] = Cmax in Sprague-Dawley rat at 5 mg/kg, iv by LC-MS analysis; type: ADME, organism-based; conditions: in vivo
[28] = Clearance in Sprague-Dawley rat at 5 mg/kg, iv by LC-MS analysis; type: ADME, organism-based; conditions: in vivo
[29] = Clearance in Sprague-Dawley rat at 50 mg/kg, po by LC-MS analysis; type: ADME, organism-based; conditions: in vivo
[30] = Oral bioavailability in Sprague-Dawley rat at 50 mg/kg by LC-MS analysis; type: ADME, organism-based; conditions: in vivo
[31] = Toxicity in Kunming mouse assessed as effect on heart colour at 100 to 200 mg/kg, iv once daily for 5 days; type: organism-based; conditions: in vivo, 120 h, dose 100-200 mg/kg, time 5 day
[32] = Toxicity in Kunming mouse assessed as effect on liver colour at 100 to 200 mg/kg, iv once daily for 5 days; type: organism-based; conditions: in vivo, 120 h, dose 100-200 mg/kg, time 5 day
[33] = Toxicity in Kunming mouse assessed as effect on kidney colour at 100 to 200 mg/kg, iv once daily for 5 days; type: organism-based; conditions: in vivo, 120 h, dose 100-200 mg/kg, time 5 day
[34] = Toxicity in Kunming mouse assessed as effect on heart size at 100 to 200 mg/kg, iv once daily for 5 days; type: organism-based; conditions: in vivo, 120 h, dose 100-200 mg/kg, time 5 day
[35] = Toxicity in Kunming mouse assessed as effect on liver size at 100 to 200 mg/kg, iv once daily for 5 days; type: organism-based; conditions: in vivo, 120 h, dose 100-200 mg/kg, time 5 day
[36] = Toxicity in Kunming mouse assessed as effect on kidney size at 100 to 200 mg/kg, iv once daily for 5 days; type: organism-based; conditions: in vivo, 120 h, dose 100-200 mg/kg, time 5 day
[37] = Toxicity in Kunming mouse assessed as effect on heart weight at 100 to 200 mg/kg, iv once daily for 5 days; type: organism-based; conditions: in vivo, 120 h, dose 100-200 mg/kg, time 5 day
[38] = Toxicity in Kunming mouse assessed as effect on liver weight at 100 to 200 mg/kg, iv once daily for 5 days; type: organism-based; conditions: in vivo, 120 h, dose 100-200 mg/kg, time 5 day
[39] = Toxicity in Kunming mouse assessed as effect on kidney weight at 100 to 200 mg/kg, iv once daily for 5 days; type: organism-based; conditions: in vivo, 120 h, dose 100-200 mg/kg, time 5 day
[40] = Drug uptake in Sprague-Dawley rat at 50 mg/kg, po or 5 mg/kg, iv measured after 2 to 3 hrs by LC-MS/MS analysis; type: ADME, organism-based; conditions: in vivo, time 2-3 hrs

For CC(=O)N[C@H]1[C@H](OCCCCC(=O)NCCCNC(=O)CCOCC(COCCC(=O)NCCCNC(=O)CCCCO[C@@H]2O[C@H](CO)[C@H](O)[C@@H](O)[C@H]2NC(C)=O)(COCCC(=O)NCCCNC(=O)CCCCO[C@@H]2O[C@H](CO)[C@H](O)[C@@H](O)[C@H]2NC(C)=O)NC(=O)CCC(=O)NCCOCCOCCOCCOCCn2cc(COP(=O)(O)COCCn3cnc4c(N)ncnc43)nn2)O[C@H](CO)[C@H](O)[C@H]1O, the Drug metabolism [1] was “metabolite_notdetected”, the Drug metabolism [2] was “metabolite_detected” and the Drug metabolism [3] was “metabolite_detected”. For the same compound, the Drug metabolism [4] was “metabolite_detected” and the Drug metabolism [5] was “metabolite_detected”.

In the case of CC(=O)N[C@H]1[C@H](OCCCCC(=O)NCCOCCOCCOCCOCCn2cc(COP(=O)(CO[C@H](C)Cn3cnc4c(N)ncnc43)OCOC(=O)C(C)(C)C)nn2)O[C@H](CO)[C@H](O)[C@H]1O (stereo not given in full), the Activity [6] is reported as “Non-toxic”, the Activity [7] is reported as “Non-toxic” and the Activity [8] is reported as “Toxic”. For the same compound, the MTD at 120 h [9] was ~200 mg/kg, the Activity [10] was “Toxic” and the CC50 [11] was > 100000 nM. The EC50 [12] was 214 nM, the selectivity ratio [13] was > 468 and the Activity [14] was “Non-toxic”. For the same compound, the Activity [15] was “Non-toxic”, the half-life [16] was 2.13 min and the half-life [17] was 12.4 min. For the same compound, the AUC(0-t) [18] was 4900 ng·h/mL, the AUC(0-t) [19] was 2100 ng·h/mL and the AUC(0-inf) [20] was 2130 ng·h/mL. The AUC(0-inf) [21] was 4930 ng·h/mL, the half-life [22] was 192 min and the half-life [23] was 67.2 min. For the same compound, the Tmax [24] was 1.98 min, the Tmax [25] was 45 min and the Cmax [26] was 1500 ng/mL. It also gave a Cmax [27] of 2030 ng/mL, a clearance [28] of 40.7 mL/min/kg and a CL/F [29] of 172 mL/min/kg. For the same compound, the bioavailability [30] was 23.4%, the Activity [31] was “Non-toxic” and the Activity [32] was “Non-toxic”. For the same compound, the Activity [33] was “Non-toxic”, the Activity [34] was “Non-toxic” and the Activity [35] was “Non-toxic”. For the same compound, the Activity [36] was “Non-toxic”, the Activity [37] was “Non-toxic” and the Activity [38] was “Non-toxic”. The Activity [39] was “Non-toxic” and the Drug uptake [40] was “Not_active”.

For CC(=O)N[C@H]1[C@H](OCCCCC(=O)NCCOCCOCCOCCOCCn2cc(COP(=O)(COCCn3cnc4c(N)ncnc43)OCOC(=O)C(C)(C)C)nn2)O[C@H](CO)[C@H](O)[C@H]1O (stereo not given in full), the Activity [6] was “Non-toxic”, the Activity [7] was “Non-toxic” and the Activity [8] was “Toxic”. The MTD at 120 h [9] was ~200 mg/kg, the Activity [10] was “Toxic” and the CC50 [11] was > 100000 nM. For the same compound, the EC50 [12] was 260 nM, the selectivity ratio [13] was > 384 and the Activity [14] was “Non-toxic”. The Activity [15] was “Non-toxic”, the half-life [16] was 2.33 min and the half-life [17] was 14.9 min. For the same compound, the AUC(0-t) [18] was 3300 ng·h/mL, the AUC(0-t) [19] was 1990 ng·h/mL and the AUC(0-inf) [20] was 2000 ng·h/mL. For the same compound, the AUC(0-inf) [21] was 3310 ng·h/mL, the half-life [22] was 191 min and the half-life [23] was 46.8 min. It also gave a Tmax [24] of 1.98 min, a Tmax [25] of 40.2 min and a Cmax [26] of 1290 ng/mL. It also gave a Cmax [27] of 2010 ng/mL, a clearance [28] of 42.1 mL/min/kg and a CL/F [29] of 252 mL/min/kg. The bioavailability [30] was 16.6%, the Activity [31] was “Non-toxic” and the Activity [32] was “Non-toxic”. The Activity [33] was “Non-toxic”, the Activity [34] was “Non-toxic” and the Activity [35] was “Non-toxic”. The Activity [36] was “Non-toxic”, the Activity [37] was “Non-toxic” and the Activity [38] was “Non-toxic”. The Activity [39] was “Non-toxic” and the Drug uptake [40] was “Not_active”.
